Assay [1] deals with HIV-1 CA hexamer from clade C (92BR025.8) (Human immunodeficiency virus type 1 group M subtype C, UniProt O12157, E175C/M315A/P144C/W314A). The experiment in a line: SPR binding to immobilized HIV-1 CA hexamer, clade C.
Assay [2] deals with monomeric HIV-1 CA protein, clade B (NL4-3) (Human immunodeficiency virus type 1 group M subtype B, UniProt P12493).
Protocol: (§1) In vitro assembly of the monomeric HIV-1 CA proteins was performed using a modification of the standard CA turbidity assembly assay [62, 63, 64, 65, 66]. This assay relies upon the fact that the addition of high salt to HIV-1 CA protein causes self-assembly that can be monitored and quantified as the increase in turbidity over time, as described in Kortagere et al. [61, 67]. Briefly, 75 µL of buffer was prepared, containing a final concentration of 50 mM NaH2PO4 pH 8.0 and various concentrations (1–5 M) of NaCl to assess the optimal concentration of salt needed to initiate assembly after the addition of the purified clade variants. To initiate the assembly reaction, 25 µL of 120 µM purified capsid was added to a final CA concentration of 30 µM (including matching DMSO concentrations). In the presence of compounds, the in vitro reaction contained 50 mM NaH2PO4 pH 8.0, 30 µM CA protein, 50 µM inhibitor, 3% DMSO, and 3 M NaCl. Readings were then taken at 350 nm every 30 s for 20 min to measure the increase in turbidity over time. The OD at 350 nm over the first 2 min was then plotted and fit with a linear regression to calculate the initial velocity (AU/min) of CA assembly.
The test system of assay [3] is monomeric HIV-1 CA protein, clade A2 (CDKTB48). Kind of assay: In vitro CA assembly (turbidity) assay, clade A2. The class given is biochemical. The note with it: 3 M NaCl.
Protocol: as §1
Assay [4] has as its target T1, monomeric HIV-1 CA protein, clade C (92BR025.8) (Human immunodeficiency virus type 1 group M subtype C, UniProt O12157).
T1 construct: hexahistidine (C); made in house; host or cells: E. coli BL21 (DE3) RIL
The experiment in a line: In vitro CA assembly (turbidity) assay, clade C. Format: biochemical. The following applies: clade C CA 30 µM, 50 µM inhibitor, 3 M NaCl, first 120 s, n = 3.
Protocol: as §1

Assay [5] addresses HIV-1 CA hexamer from clade B (NL4-3) (Human immunodeficiency virus type 1 group M subtype B, UniProt P12493, A146C/E177C/M317A/W316A). Kind of assay: SPR binding to immobilized HIV-1 CA hexamer, clade B.
The test system of assay [6] is HIV-1 CA hexamer from clade A1 (92UG037.1). Format: binding. The following applies: SPR.
Assay [7] relates to monomeric HIV-1 CA protein, clade A1 (92UG037.1). The experiment in a line: In vitro CA assembly (turbidity) assay, clade A1. The note with it: 3 M NaCl. The class given is biochemical.
Protocol: as §1
The test system of assay [8] is HIV-1 CA hexamer from clade A2 (CDKTB48). The class given is binding. The following applies: SPR.
The test system of assay [9] is HIV-1 CA hexamer from clade D (94UG114.1). Format: binding. The note with it: SPR.
Assay [10] deals with monomeric HIV-1 CA protein, clade D (94UG114.1). Kind of assay: In vitro CA assembly (turbidity) assay, clade D. Format: biochemical. The following applies: clade D CA 30 µM, 50 µM inhibitor, 3 M NaCl, first 120 s, n = 3.
Protocol: as §1
In assay [11] the target is tri-hexameric interface of CA hexamers. Also on record: method as in PMID 34835048. The following applies: RRR patch binding into tri-hexameric interface; cited from earlier work.
The mark [12] stands for this setting: global fit, n = 3, read-out: KD Kinetic/Global.
[13] abbreviates: SPR, clade B (NL4.3) hexamer, 1:1 binding model, n = 3.
Where [14] appears, read: Langmuir isotherm equilibrium fit, 25 °C, n = 3, read-out: KD Equilibrium.

Like-named read-outs stand apart in the source and are kept apart here.

Sequence of HIV-1 CA hexamer from clade C (92BR025.8) (O12157 131-361 P144C/E175C/W314A/M315A): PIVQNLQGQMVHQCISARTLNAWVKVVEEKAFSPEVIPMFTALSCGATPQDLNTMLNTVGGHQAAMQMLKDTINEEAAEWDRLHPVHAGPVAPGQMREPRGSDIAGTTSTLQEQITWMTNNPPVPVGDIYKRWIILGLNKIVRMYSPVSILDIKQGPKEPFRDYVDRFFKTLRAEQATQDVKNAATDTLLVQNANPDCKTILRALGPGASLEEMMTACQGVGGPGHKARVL
T1 sequence (O12157 131-361): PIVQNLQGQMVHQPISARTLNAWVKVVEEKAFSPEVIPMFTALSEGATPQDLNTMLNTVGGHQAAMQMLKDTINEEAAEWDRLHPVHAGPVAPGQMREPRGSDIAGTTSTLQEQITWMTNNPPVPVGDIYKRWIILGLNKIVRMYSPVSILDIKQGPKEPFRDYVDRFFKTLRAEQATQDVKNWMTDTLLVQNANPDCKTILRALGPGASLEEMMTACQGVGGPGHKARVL

Regarding `CC(C)[C@H](NC(=O)CNC(=O)[C@H](CO)NC(=O)[C@@H]1CCCN1C(=O)[C@H](CO)NC(=O)[C@H](CC(N)=O)NC(=O)[C@H](CC(N)=O)NC(=O)[C@@H](N)[C@@H](C)O)C(=O)N[C@@H](Cc1ccccc1)C(=O)N[C@H](C(=O)N[C@@H](Cc1ccccc1)C(=O)NCC(=O)N[C@@H](C)C(=O)N[C@@H](CC(N)=O)C(=O)N[C@@H](CO)C(=O)N[C@@H](CO)C(=O)N[C@H](C(=O)O)[C@@H](C)O)[C@@H](C)O` [NUP-153], the Kd in [1] (Langmuir isotherm equilibrium fit, n = 3, read-out: KD Equilibrium) came out at 503000 nM; in assay [1] (setting [12]) it was 881000 nM.

For PF-74, the “Initial Velocity PF-74” value was found to be 0.043 ± 0.009 AU/min in assay [2]; 0.017 ± 0.002 AU/min in [3] (clade A2 CA 30 µM, 50 µM inhibitor, first 120 s, n = 3); 0.039 ± 0.007 AU/min in [4]; 0.034 ± 0.001 AU/min in [7] (clade A1 CA 30 µM, 50 µM inhibitor, first 120 s, n = 3); 0.050 ± 0.008 AU/min in assay [10]. Besides, the “fold increase in assembly rate (initial velocity) vs Apo” value is 1.3 fold in [3] (clade A2, 50 µM inhibitor, initial 120 s) and 1.5 fold in assay [7] (clade A1, 50 µM inhibitor, initial 120 s). The “fold tighter binding to clade B protein compared to clade A1 protein” value in assay [5] (SPR data, clade B vs clade A1) is ~ 20 fold. Also, the koff in assay [5] (setting [13]) was found to be 0.0363 s⁻¹; in assay [6] (1:1 binding model, n = 3), 0.647 s⁻¹; in assay [8] (1:1 binding model, n = 3) it was 0.0916 s⁻¹; in assay [1] (1:1 binding model, n = 3), 0.0754 s⁻¹; in [9] (1:1 binding model, n = 3) it was 0.0395 s⁻¹. Further, the kon is 756000 M⁻¹ s⁻¹ in [5] (setting [13]); 615000 M⁻¹ s⁻¹ in assay [6] (1:1 binding model, n = 3); 669000 M⁻¹ s⁻¹ in assay [8] (1:1 binding model, n = 3); 228000 M⁻¹ s⁻¹ in assay [1] (1:1 binding model, n = 3); 773000 M⁻¹ s⁻¹ in assay [9] (1:1 binding model, n = 3). The Kd in assay [6] (setting [14]) came out at 716 nM; in assay [6] (setting [12]), 946 nM; in [8] (setting [14]), 138 nM; in assay [8] (setting [12]), 139 nM; in [1] (setting [14]) it was 354 nM; in assay [1] (setting [12]), 330 nM. Moreover, the Kd in assay [9] (setting [14]) and in [9] (setting [12]) was 51 nM in each case.

As for “RRR patch: highly positively charged RRR motif at the C-terminus of NUP-153 binding the tri-hexameric interface of CA (FSGRKIKTAVRRRK; UniProt P49790 1462-1475, looked up, fragment)”, the Kd in [11] is 800 nM.

These data come from article PMC9138599, “Clade-Specific Alterations within the HIV-1 Capsid Protein with Implications for Nuclear Translocation” (Biomolecules, 2022).
